Test results from patent publication US20030130280A1, “Treatment of acute myeloid leukemia with indolinone compounds” (SUGEN, Inc., priority 2001, published 2003).

Tests used:
RS4; 11 = assay: VEGF production, RS4;11 cells; format: cell-based; details: for VEGF %: 0 uM = 100
Wild-type FLT-3 = target: T1, Wild-type FLT-3 (Homo sapiens, UniProt P36888); assay: FLT-3 phosphorylation by immunoprecipitation/Western in RS411 cells; format: cell-based; on Wild-type FLT-3 (inhibition of phosphorylation): key: +++: very strong inhibition; ++: inhibition; +/−: weak inhibition; −: no inhibition
T1 construct: host or cells: RS411 (RS4;11)
T1 sequence (P36888 27-993): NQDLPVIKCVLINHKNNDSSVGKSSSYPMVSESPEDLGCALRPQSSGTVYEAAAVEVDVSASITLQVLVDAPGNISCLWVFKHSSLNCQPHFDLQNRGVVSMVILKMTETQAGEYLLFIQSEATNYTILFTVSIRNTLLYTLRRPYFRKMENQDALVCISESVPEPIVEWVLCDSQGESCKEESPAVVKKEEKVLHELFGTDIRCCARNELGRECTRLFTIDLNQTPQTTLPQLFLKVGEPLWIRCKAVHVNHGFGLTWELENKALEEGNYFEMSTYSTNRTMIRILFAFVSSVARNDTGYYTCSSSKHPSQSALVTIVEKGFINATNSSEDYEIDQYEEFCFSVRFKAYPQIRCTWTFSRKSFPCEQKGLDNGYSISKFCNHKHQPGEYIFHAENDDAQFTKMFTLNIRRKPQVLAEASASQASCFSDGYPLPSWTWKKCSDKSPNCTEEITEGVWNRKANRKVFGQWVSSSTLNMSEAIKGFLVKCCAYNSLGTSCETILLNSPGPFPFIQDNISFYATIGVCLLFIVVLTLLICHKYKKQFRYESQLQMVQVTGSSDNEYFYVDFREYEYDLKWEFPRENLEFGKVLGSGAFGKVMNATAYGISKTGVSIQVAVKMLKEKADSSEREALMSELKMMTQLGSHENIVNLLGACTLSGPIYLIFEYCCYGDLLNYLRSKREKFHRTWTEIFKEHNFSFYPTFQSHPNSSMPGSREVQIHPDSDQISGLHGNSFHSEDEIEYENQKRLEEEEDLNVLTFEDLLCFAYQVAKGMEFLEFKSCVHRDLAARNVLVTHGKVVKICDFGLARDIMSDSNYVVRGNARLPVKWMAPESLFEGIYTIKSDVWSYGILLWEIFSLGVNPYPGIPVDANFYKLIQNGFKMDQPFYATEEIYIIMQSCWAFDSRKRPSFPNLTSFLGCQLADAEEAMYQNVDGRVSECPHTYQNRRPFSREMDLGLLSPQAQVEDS
Protocol: FLT-3 was immunoprecipitated from lysates with a commercially available antibody. Proteins were separated by SDS-polyacrylamide gel electrophoresis, transferred to membranes analyzed by Western blotting for phosphotyrosine and subsequently for total FLT-3 protein as control. […]
(§1) Immunoprecipitation and Western Blot (IP/W) analysis: Cells were lysed in lysis buffer (20 mM Tris, pH 7.5; 137 mM NaCl; 10% glycerol; 1% NP-40; 0.1% SDS; 2 mM EDTA) containing protease and phosphatase inhibitors (50 mM sodium fluoride, 1 mM sodium orthovanadate, 2 mM Pefabloc, […], […], […], 4 mM leupeptin, and 4 mM pepstatin A). Equivalent amounts of protein were separated by SDS-PAGE, then transferred to nitrocellulose membranes. For analysis of FLT3 phosphorylation, equivalent amounts of protein from each sample were immunoprecipitated overnight at 4*C. with an agarose-conjugated anti-FLT3 antibody (Santa Cruz Biotechnology, Santa Cruz, Calif.). Immune complexes were washed (150 mM NaCl, 1.5 mM MgCl2, 50 mM HEPES, pH 7.5, 10% glycerol, 0.1% Triton X-100, and 1 mM EGTA) and following SDS-PAGE, proteins were transferred to nitrocellulose membranes. Membranes were probed with an anti-phosphotyrosine antibody (Upstate, Lake Placid, N.Y. or Transduction Laboratories, Lexington, Ky.) and then stripped with Restore Western Blot Stripping Buffer (Pierce, Rockford, Ill.). Membranes were reprobed with an anti-FLT3 antibody (Santa Cruz Biotechnology). Stat5 antibodies for immunprecipitation and Western blot analysis were from Upstate Biotechnology and Transduction labs respectively.

OC1-AML5 = assay: VEGF production, OC1-AML5 cells; format: cell-based; details: for VEGF %: 0 uM = 100
RS411 (wild type FLT-3) = assay: Apoptosis by PARP cleavage and caspase 3 staining, wild type cells; format: cell-based; details: PARP cleavage, caspase 3 staining
Protocol: (§2) Apoptosis was measured by analysis of PARP cleavage and by caspase 3 staining.

MV411 (ITD mutant FLT-3) = assay: Apoptosis by PARP cleavage and caspase 3 staining, ITD-mutant cells; format: cell-based; details: PARP cleavage, caspase 3 staining
Protocol: as §2

FLT-3 = assay: Phase I single dose study, FLT-3 phosphorylation in whole blood; format: in vivo, human; details: AML patients, reached in 3 pts at each dose level >200 mg, WT and mutant FLT-3 patients
Protocol: as §1

MV411 tumors = assay: Subcutaneous MV411 tumor model, tumor growth; format: in vivo, athymic mice; details: within 4 days of treatment
Protocol: Tumor cells, MV411 in the example shown were implanted subcutaneously in the hindflank of athymic mice. […] For measurement of efficacy, tumor growth was measured at various subsequent time points using vernier calipers. For analysis of phosphorylation, tumors were resected following dosing (4 hours here), pulverized in liquid nitrogen and homogenized in lysis buffer. FLT-3 and Stat5 phosphorylation were measured by immunoprecipitation and Western blot analysis.
Athymic mice were injected subcutaneously with MV411 and RS411 cells to cause tumor formation.

Stat5 = Stat5 activation by FLT-3 ligand in OC1-AML5 cells (IP/Western, Western, gel shift); format: cell-based; details: FLT-3 ligand stimulated
From the text: Activation of downstream pathways by FLT-3 ligand was also investigated, specifically for Stat5 and erk. Stat5 and Erk are downstream mediators of RTK signaling, and may provide readouts for FLT-3 signaling. Stat 5 is a transcription factor which regulates many genes involves in cell survival and proliferation. Erk½ are kinases on the Raf signaling pathway.

[1] = Bone marrow model, survival; format: in vivo, NOD-SCID mice; details: orally once daily
Protocol: NOD-SCID mice were pretreated with cyclophosphamide (Neosar, Pharmacia, Kalamazoo, Mich.) by intraperitoneal injection of 150 mg/kg/day for 2 days ^(46), followed by 24 hours of rest prior to intravenous (i.v.) injection of 5×10^6 cells via the tail vein. At experimental endpoints, mice were anesthetized, followed by terminal blood collection via intracardiac puncture. Bone marrow cell suspensions were prepared by flushing mouse femurs with cold, sterile PBS. For all studies, a paired Student's t test was used to assess differences between treated and control groups (P<0.05 was considered significant).

## CCN(CC)CCNC(=O)c1c(C)[nH]c(/C=C2\C(=O)Nc3ccc(F)cc32)c1C [Compound 1, 5-(5-Fluoro-2-oxo-1,2-dihydro-indol-3-ylidenemethyl)-2,4-dimethyl-1H-pyrrole-3-carboxylic acid(2-diethylamino-ethyl)-amide]
RS4; 11; CMPD 1 0.00 uM
  VEGF mean sd: 32.82
RS4; 11; CMPD 1 0.01 uM
  VEGF mean sd: 9.62
  VEGF %: 31.0%
RS4; 11; CMPD 1 0.1 uM
  VEGF mean sd: 1.24
  VEGF %: 4.0%
RS4; 11; CMPD 1 1 uM
  VEGF mean sd: 2.3
  VEGF %: 7.4%
RS4; 11; CMPD 1 10 uM
  VEGF mean sd: 2.94
  VEGF %: 9.5%
Wild-type FLT-3; RS411 cells, IP/Western
  Wild-type FLT-3 (inhibition of phosphorylation): ++
Wild-type FLT-3; in words
  inhibition of wild-type FLT-3 phosphorylation: inhibits
OC1-AML5; CMPD 1 0.00 uM
  VEGF mean sd: 92.5
  VEGF %: 91.8%
OC1-AML5; CMPD 1 0.01 uM
  VEGF mean sd: 35.6
  VEGF %: 35.3%
OC1-AML5; CMPD 1 0.1 uM
  VEGF mean sd: 33.6
  VEGF %: 33.3%
OC1-AML5; CMPD 1 1 uM
  VEGF mean sd: 28.3
  VEGF %: 28.0%
OC1-AML5; CMPD 1 10 uM
  VEGF %: 15.5%
RS411 (wild type FLT-3)
  apoptosis: causes apoptosis
MV411 (ITD mutant FLT-3)
  apoptosis: causes apoptosis
FLT-3
  inhibition of FLT-3 phosphorylation: > 50%
MV411 tumors
  tumor size: dramatically reduced tumor size to almost undetectable
Stat5
  Stat5 activity: inhibited
[1]
  dose with highest efficacy on survival: 20 mg/kg/day
[1]; range of doses
  survival: prolonged survival in a dose-dependent manner
